Molecules are shown by their SMILES.

Chain of human RIP1 kinase domain (2-375) (Q13546 2-375): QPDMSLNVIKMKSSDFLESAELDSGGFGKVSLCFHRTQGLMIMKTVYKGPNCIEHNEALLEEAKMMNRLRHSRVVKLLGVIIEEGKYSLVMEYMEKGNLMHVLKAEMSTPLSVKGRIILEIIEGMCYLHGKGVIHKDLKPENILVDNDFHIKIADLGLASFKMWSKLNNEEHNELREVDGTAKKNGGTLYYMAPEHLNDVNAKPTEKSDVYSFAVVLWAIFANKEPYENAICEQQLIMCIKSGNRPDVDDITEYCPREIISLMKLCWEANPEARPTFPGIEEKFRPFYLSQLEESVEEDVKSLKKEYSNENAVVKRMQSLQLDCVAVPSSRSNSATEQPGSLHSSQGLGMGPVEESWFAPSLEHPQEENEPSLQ

The target in the assay is human RIP1 kinase domain (2-375) (Homo sapiens (Human), UniProt Q13546). Briefly: biochemical. In kind it is biochemical. To be noted: tight-binding apparent inhibition constant; human RIP1 kinase domain (2-375) 50 nM, 50 uM ATP, 2 hours; read-out: Ki. The gist of the method:
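Ki^app comes from Morrison tight-binding fits of fractional activity versus compound concentration. Activity was read as ADP production, via tracer displacement lowering fluorescence polarization (633 nm laser). Conditions: 2 h, 50 nM insect-cell-expressed enzyme, 50 uM ATP, 30 mM MgCl2, 1 mM DTT, 0.5% DMSO, pH 7.5 Hepes.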
On to `CC(O)c1cc2n(n1)CC[C@H](NC(=O)c1ncn(Cc3ccccc3)n1)C(=O)N2C` (single isomer, unassigned) [Example 367], for which the Ki came out at 161 nM. `CC(O)c1cc2n(n1)CC[C@H](NC(=O)c1ncn(Cc3ccccc3)n1)C(=O)N2C` (single isomer, unassigned) [Example 368]: the Ki turned out to be 154 nM. `CN1C(=O)C(NC(=O)c2ncn(Cc3ccccc3)n2)CCn2nc(C(C)(C)F)cc21` (single isomer, unassigned) [Example 369, 1-benzyl-N-[2-(1-fluoro-1-methyl-ethyl)-4-methyl-5-oxo-7,8-dihydro-6H-pyrazolo[1,5-a][1,3]diazepin-6-yl]-1,2,4-triazole-3-carboxamide]: the Ki was 345 nM.

`CN1C(=O)C(NC(=O)c2ncn(Cc3ccccc3)n2)CCn2nc(C(C)(C)F)cc21` (single isomer, unassigned) [Example 370, 1-benzyl-N-[2-(1-fluoro-1-methyl-ethyl)-4-methyl-5-oxo-7,8-dihydro-6H-pyrazolo[1,5-a][1,3]diazepin-6-yl]-1,2,4-triazole-3-carboxamide]: the Ki was found to be 555 nM.

Take `CN1C(=O)[C@@H](NC(=O)c2nc3n(n2)[C@H](c2ccccc2)CCC3)CCn2nccc21` (single isomer, unassigned) [Example 384]: the Ki was determined as 2100 nM. Under `CN1C(=O)[C@@H](NC(=O)c2nc3n(n2)[C@@H](c2cnn(C)c2)CCC3)CCn2nccc21` (single isomer, unassigned) [Example 404] stands 318 nM; under `CC(C)[C@H]1CCCc2nc(C(=O)N[C@H]3COc4ccccc4N(C)C3=O)nn21` (single isomer, unassigned) [Example 413], 227 nM.

Regarding `CN1C(=O)[C@@H](NC(=O)c2nc3n(n2)[C@@H](C(F)(F)F)CCC3)COc2ccccc21` (single isomer, unassigned) [Example 425], the Ki was 471 nM. Under `Cc1cc(F)c2c(c1)OC[C@H](NC(=O)c1nc3n(n1)[C@@H](C(F)(F)F)CCC3)C(=O)N2` (single isomer, unassigned) [Example 427] stands 210 nM; under `Cc1cc(F)c2c(c1)OC[C@H](NC(=O)c1nc3n(n1)[C@H](C(F)(F)F)CCC3)C(=O)N2` (single isomer, unassigned) [Example 428], 8.14 nM; under `O=C(N[C@H]1CCc2cc(F)cc(F)c2NC1=O)c1nc2n(n1)[C@@H](C(F)(F)F)CCC2` (single isomer, unassigned) [Example 429], 213 nM. With `O=C(N[C@H]1CCc2cc(F)cc(F)c2NC1=O)c1nc2n(n1)[C@H](C(F)(F)F)CCC2` (single isomer, unassigned) [Example 430], the Ki stood at 21 nM. Under `O=C(N[C@H]1COc2cc(F)cc(F)c2NC1=O)c1nc2n(n1)[C@@H](C(F)(F)F)CCC2` (single isomer, unassigned) [Example 431] stands 434 nM; under `O=C(N[C@H]1COc2cc(F)cc(F)c2NC1=O)c1nc2n(n1)[C@H](C(F)(F)F)CCC2` (single isomer, unassigned) [Example 432], 12.7 nM. For the compound `CC(C)[C@H]1CCCc2nc(C(=O)N[C@H]3CCc4cc(F)cc(F)c4NC3=O)nn21` (single isomer, unassigned) [Example 434], the Ki is 174 nM. Under `CCC[C@H]1CCCc2nc(C(=O)N[C@H]3CCc4cc(F)cc(F)c4NC3=O)nn21` (single isomer, unassigned) [Example 435] stands 25.2 nM; under `CC(C)[C@@H]1CCCc2nc(C(=O)N[C@H]3CCc4cc(F)cc(F)c4NC3=O)nn21` (single isomer, unassigned) [Example 436], 20.3 nM; under `CCC[C@@H]1CCCc2nc(C(=O)N[C@H]3CCc4cc(F)cc(F)c4NC3=O)nn21` (single isomer, unassigned) [Example 437], 8.43 nM. Under `Cc1cc(F)c2c(c1)OC[C@H](NC(=O)c1nc3n(n1)[C@@H](C(C)C)CCC3)C(=O)N2` (single isomer, unassigned) [Example 438] stands 150 nM; under `CCC[C@H]1CCCc2nc(C(=O)N[C@H]3COc4cc(C)cc(F)c4NC3=O)nn21` (single isomer, unassigned) [Example 439], 6.62 nM. In the case of `Cc1cc(F)c2c(c1)OC[C@H](NC(=O)c1nc3n(n1)[C@H](C(C)C)CCC3)C(=O)N2` (single isomer, unassigned) [Example 440], the Ki turned out to be 3.46 nM. Under `CCC[C@@H]1CCCc2nc(C(=O)N[C@H]3COc4cc(C)cc(F)c4NC3=O)nn21` (single isomer, unassigned) [Example 441] stands 9.29 nM. Under `CC(C)[C@@H]1CCCc2nc(C(=O)N[C@H]3COc4cc(F)cc(F)c4NC3=O)nn21` (single isomer, unassigned) [Example 444] stands 4.67 nM; under `CCC[C@@H]1CCCc2nc(C(=O)N[C@H]3COc4cc(F)cc(F)c4NC3=O)nn21` (single isomer, unassigned) [Example 445], 3.47 nM; under `CCC[C@H]1CCCc2nc(C(=O)N[C@H]3COc4cc(F)cc(F)c4NC3=O)nn21` (single isomer, unassigned) [Example 446], 7.06 nM.

For `CC(C)[C@H]1CCCc2nc(C(=O)N[C@H]3COc4cc(F)cc(F)c4NC3=O)nn21` (single isomer, unassigned) [Example 447], the Ki was found to be 207 nM. On to `CN1C(=O)C(NC(=O)c2ncn(Cc3ccccc3)n2)CCn2nc(CN3CCC(F)(F)C3)cc21` (single isomer, unassigned) [Example 448, 1-benzyl-N-(2-((3,3-difluoropyrrolidin-1-yl)methyl)-4-methyl-5-oxo-5,6,7,8-tetrahydro-4H-pyrazolo[1,5-a][1,3]diazepin-6-yl)-1H-1,2,4-triazole-3-carboxamide], for which the Ki turned out to be 214 nM. Under `CN1C(=O)[C@@H](NC(=O)c2ncn(Cc3ccccc3)n2)CCn2nc(CN3CCOCC3)cc21` (single isomer, unassigned) [Example 449] stands 115 nM; under `CN1C(=O)C(NC(=O)c2ncn(Cc3ccccc3)n2)CCn2nc(CN3CC(F)C3)cc21` (single isomer, unassigned) [Example 450, 1-benzyl-N-(2-((3-fluoroazetidin-1-yl)methyl)-4-methyl-5-oxo-5,6,7,8-tetrahydro-4H-pyrazolo[1,5-a][1,3]diazepin-6-yl)-1H-1,2,4-triazole-3-carboxamide], 355 nM.

Turning to `COC1CN(Cc2cc3n(n2)CCC(NC(=O)c2ncn(Cc4ccccc4)n2)C(=O)N3C)C1` (single isomer, unassigned) [Example 451, 1-benzyl-N-(2-((3-methoxyazetidin-1-yl)methyl)-4-methyl-5-oxo-5,6,7,8-tetrahydro-4H-pyrazolo[1,5-a][1,3]diazepin-6-yl)-1H-1,2,4-triazole-3-carboxamide], the Ki worked out at 444 nM. In the case of `Cc1cc2n(n1)CC[C@H](NC(=O)c1nc3n(n1)[C@H](c1ccccc1)CC3)C(=O)N2C` (single isomer, unassigned) [Example 610], the Ki was 920 nM.

Take `O=C(N[C@H]1CCc2cc(F)cc(F)c2NC1=O)c1nc2n(n1)[C@H](c1ccccc1)CC2` (single isomer, unassigned) [Example 612]: the Ki came to 71 nM. Under `CN1C(=O)[C@@H](NC(=O)c2nc3n(n2)[C@H](c2ccccc2)CC3)COc2ccccc21` (single isomer, unassigned) [Example 613] stands 71 nM.

Values taken from patent US10988459B2 (priority 2015, dated 2021).
